# Experimental data reported in patent US8916551B2, “Heterocyclic compound and use thereof” (Takeda Pharmaceutical Company Limited, priority 2010, dated 2014).
# Biological target: T1, AMPA receptor (human GluR1 flip/stargazin expressed in CHO-K1 cells) (Homo sapiens, UniProt P42261)
# T1 construct: expressed in transfected cells; host or cells: CHO-K1
# Assay: AMPA receptor function enhancing activity using calcium influx as index
# Format: cell-based
# Settings: 100% = 3 mM glutamic acid + 300 μM cyclothiazide, 0% = 3 mM glutamic acid only
# From the text: Human GluR1 flip cDNA was amplified by PCR using forward primer […] (SEQ ID NO: 1) and reverse primer […] (SEQ ID NO: 2) artificially synthesized using human brain-derived cDNA (BD Bio science) as a template. The amplified product was digested with restriction enzymes EcoRI, NotI (TAKARA SHUZO CO. LTD.), and incorporated into the same site of pcDNA3.1(+) (Invitrogen) to construct pcDNA3.1(+)/human GluR1 flip gene. Human stargazin cDNA was amplified by PCR using forward primer […] (SEQ ID NO: 3) and reverse primer […] (SEQ ID NO: 4) artificially synthesized using human hippocampus cDNA as a template. The amplified product was digested with restriction enzymes XhoI, BamHI (TAKARA SHUZO CO. LTD.), and incorporated into the same site of pcDNA3.1(−) (Invitrogen) to construct pcDNA3.1 Zeo(−)/human stargazin gene.
# CHO-K1 cells passaged in a culture medium (Ham's F12 medium (Invitrogen) added with 10% inactivated fetal bovine serum (Morgate) and penicillin, streptomycin (Invitrogen)) were detached with 0.05% trypsin, 0.53 mM EDTA (Invitrogen) diluted with D-PBS(−). The detached cells were suspended in a culture medium, and recovered by a centrifugation operation at 1,000 rpm. The recovered cells were suspended again in D-PBS(−), and added to a 0.4 cm electroporation cuvette (BioRad). pcDNA3.1(+)/human GluR1 flip gene (5 μg) and pcDNA3.1 Zeo(−)/human stargazin gene (15 μg) were added, and the mixture was introduced into CHO-K1 cells using Gene Pulser II (BioRad) under the conditions of 950 μFd, […]. The introduced cells were cultured overnight in a culture medium and, the next day, plated in a 96 well plate at 250 cells/well using a selection medium (culture medium added with Zeocin (Invitrogen) to 250 μg/mL). Clones showing drug resistance were selected, and GluR1 flip/stargazin expressing clones were selected by an assay method using calcium influx as an index as shown below.
# CHO-K1/GluR1 flip/stargazin expressing cells were plated on a 96 well black transparent bottom plate (Costar) at 2×10^4 cells/well, and cultured in a 37° C., CO2 incubator (SANYO Electric Co., Ltd.) for 2 days. The medium in the cell plate was removed, and assay buffer A (D-MEM (Invitrogen), 0.1% BSA (Serogical Protein), 20 mM HEPES (Invitrogen)) was added at 50 μL/well. A calcium indicator (Calcium 4 Assay Kit, Invitrogen) added with 2.5 mM probenecid (Invitrogen) was added at 50 μL/well and the well was left standing in 37° C., CO2 incubator for 1 hr. The cell plate was set in CellLux (PerkinElmer), a mixture (50 μL) of 9 mM glutamic acid diluted with assay buffer B (HBSS (Invitrogen), 0.1% BSA, 20 mM HEPES) (final concentration 3 mM) and a test compound (test compound concentration 30 μM) was added, and the amount of change in fluorescence level in 3 min was measured. In the definition here, the amount of change in fluorescence level of well added with glutamic acid at final concentration 3 mM and 300 μM cyclothiazide (TOCRIS) is 100%, the amount of change in fluorescence level of well added only with glutamic acid at final concentration 3 mM is 0%, and the compound activity was calculated according to the following formula. activity(%)=(X−C)/(T−C)×100 T: amount of change in fluorescence level of well added with glutamic acid at final concentration 3 mM and 300 μM cyclothiazide C: amount of change in fluorescence level of well added only with glutamic acid at final concentration 3 mM X: amount of change in fluorescence level of well added with test compound
# [1] = test compound 30 μM with 3 mM glutamic acid, change in fluorescence level in 3 min
# [2] = test compound 30 μM with glutamic acid final 3 mM, change in fluorescence in 3 min
# T1 sequence (P42261 19-906 isoform P42261-2 limits assumed): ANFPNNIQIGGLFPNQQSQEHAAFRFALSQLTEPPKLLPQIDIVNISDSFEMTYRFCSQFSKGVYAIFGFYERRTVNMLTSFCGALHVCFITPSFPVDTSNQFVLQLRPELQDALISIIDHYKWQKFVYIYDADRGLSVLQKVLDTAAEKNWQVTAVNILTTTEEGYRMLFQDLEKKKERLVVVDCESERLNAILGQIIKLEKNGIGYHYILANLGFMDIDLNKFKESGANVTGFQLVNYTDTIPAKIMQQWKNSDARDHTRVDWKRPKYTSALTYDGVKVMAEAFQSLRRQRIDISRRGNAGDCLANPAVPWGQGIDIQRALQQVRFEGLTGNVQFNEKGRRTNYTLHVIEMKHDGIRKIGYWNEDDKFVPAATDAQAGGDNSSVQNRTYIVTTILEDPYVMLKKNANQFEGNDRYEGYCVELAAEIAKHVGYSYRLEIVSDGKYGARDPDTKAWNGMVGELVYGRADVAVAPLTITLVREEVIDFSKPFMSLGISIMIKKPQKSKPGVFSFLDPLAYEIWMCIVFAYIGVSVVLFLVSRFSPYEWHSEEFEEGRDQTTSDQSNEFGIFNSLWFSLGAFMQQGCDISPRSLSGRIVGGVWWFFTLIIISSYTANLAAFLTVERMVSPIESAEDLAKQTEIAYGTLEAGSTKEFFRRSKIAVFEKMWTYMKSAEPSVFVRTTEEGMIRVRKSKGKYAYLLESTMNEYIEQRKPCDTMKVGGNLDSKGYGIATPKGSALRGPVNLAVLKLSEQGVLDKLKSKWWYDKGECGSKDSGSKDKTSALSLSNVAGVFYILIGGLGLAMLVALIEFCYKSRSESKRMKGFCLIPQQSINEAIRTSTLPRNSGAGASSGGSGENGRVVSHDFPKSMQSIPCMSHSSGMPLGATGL
# T1 sequence (Q9Y698 whole entry partner): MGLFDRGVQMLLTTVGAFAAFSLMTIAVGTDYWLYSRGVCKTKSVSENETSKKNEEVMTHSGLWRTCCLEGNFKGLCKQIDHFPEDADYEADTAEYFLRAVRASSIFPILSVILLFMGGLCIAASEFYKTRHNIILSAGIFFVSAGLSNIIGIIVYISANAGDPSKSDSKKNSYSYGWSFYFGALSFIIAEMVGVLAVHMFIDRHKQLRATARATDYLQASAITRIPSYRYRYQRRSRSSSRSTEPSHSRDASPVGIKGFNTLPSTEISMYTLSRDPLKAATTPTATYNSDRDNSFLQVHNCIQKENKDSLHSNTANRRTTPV
SMILES,activity (%) [1],activity (%) [2]
"O=S1(=O)CCN2CCC[C@@H](c3ccc(-c4ccc(F)c(Cl)c4)cc3)C2=N1 [Example 226, (9S)-9-(3′-chloro-4′-fluorobiphenyl-4-yl)-3,4,6,7,8,9-hexahydropyrido[2,1-c][1,2,4]thiadiazine 2,2-dioxide]",79%,
"O=S1(=O)CCN2CCCC(c3ccc(Oc4ccc5c(c4)OCC5)cc3)C2=N1 (stereo not drawn) [Example 141, 9-[4-(2,3-dihydro-1-benzofuran-6-yloxy)phenyl]-3,4,6,7,8,9-hexahydropyrido[2,1-c][1,2,4]thiadiazine 2,2-dioxide]",,80%
"O=S1(=O)CCN2CCC[C@@H](c3ccc(Oc4ccc(Cl)cc4)cc3)C2=N1 [Example 149, (9S)-9-[4-(4-chlorophenoxy)phenyl]-3,4,6,7,8,9-hexahydropyrido[2,1-c][1,2,4]thiadiazine 2,2-dioxide]",77%,
"O=S1(=O)CCN2CCC[C@@H](c3ccc(-c4ccccc4Cl)cc3)C2=N1 [Example 220, (9S)-9-(2′-chlorobiphenyl-4-yl)-3,4,6,7,8,9-hexahydropyrido[2,1-c][1,2,4]thiadiazine 2,2-dioxide]",93%,
"Cc1cc(C(F)(F)F)ccc1Oc1ccc(C2CCCN3CCS(=O)(=O)N=C23)cc1 (stereo not drawn) [Example 123, 9-{4-[2-methyl-4-(trifluoromethyl)phenoxy]phenyl}-3,4,6,7,8,9-hexahydropyrido[2,1-c][1,2,4]thiadiazine 2,2-dioxide]",,57%
"O=S1(=O)CCN2CCCC(Oc3ccc4c(c3)CCCC4)C2=N1 (stereo not drawn) [Example 238, 9-(5,6,7,8-tetrahydronaphthalen-2-yloxy)-3,4,6,7,8,9-hexahydropyrido[2,1-c][1,2,4]thiadiazine 2,2-dioxide]",87%,
"COc1ccc2cc(C3CCCN4CCS(=O)(=O)N=C34)ccc2c1 (stereo not drawn) [Example 128, 9-(6-methoxynaphthalen-2-yl)-3,4,6,7,8,9-hexahydropyrido[2,1-c][1,2,4]thiadiazine 2,2-dioxide]",,98%
"CCCCOc1ccc(C2CCCN3CCS(=O)(=O)N=C23)cc1F (stereo not drawn) [Example 352, 9-(4-butoxy-3-fluorophenyl)-3,4,6,7,8,9-hexahydropyrido[2,1-c][1,2,4]thiadiazine 2,2-dioxide]",,76%
"O=S1(=O)CCN2CCCC(c3ccc4c(ccn4CCc4ccc(F)cc4)c3)C2=N1 (stereo not drawn) [Example 295, 9-{1-[2-(4-fluorophenyl)ethyl]-1H-indol-5-yl}-3,4,6,7,8,9-hexahydropyrido[2,1-c][1,2,4]thiadiazine 2,2-dioxide]",,64%
"CC(F)(F)c1ccc(Oc2ccc(C3CCCN4CCS(=O)(=O)N=C34)cc2)cc1 (stereo not drawn) [Example 235, 9-{4-[4-(1,1-difluoroethyl)phenoxy]phenyl}-3,4,6,7,8,9-hexahydropyrido[2,1-c][1,2,4]thiadiazine 2,2-dioxide]",84%,
"O=C(c1ccccc1)c1ccc(C2CCCN3CCS(=O)(=O)N=C23)cc1 (stereo not drawn) [Example 304, [4-(2,2-dioxido-3,4,6,7,8,9-hexahydropyrido[2,1-c][1,2,4]thiadiazin-9-yl)phenyl](phenyl)methanone]",,87%
"CC1=CN2CCS(=O)(=O)N=C2C(c2ccc(OC3CCCCC3)cc2)=N1 [Example 180, 9-[4-(cyclohexyloxy)phenyl]-7-methyl-3,4-dihydropyrazino[2,1-c][1,2,4]thiadiazine 2,2-dioxide]",70%,

# Further lines, results first:
activity (%) [1],activity (%) [2],SMILES
,67%,"CC(C)c1ccc(COC2=CC=CN3CCS(=O)(=O)N=C23)cc1 [Example 52, 9-{[4-(1-methylethyl)benzyl]oxy}-3,4-dihydropyrido[2,1-c][1,2,4]thiadiazine 2,2-dioxide]"
,91%,"Cn1ccc2cc(C3=CC=CN4CCS(=O)(=O)N=C34)ccc21 [Example 412, 9-(1-methyl-1H-indol-5-yl)-3,4-dihydropyrido[2,1-c][1,2,4]thiadiazine 2,2-dioxide]"
,90%,"Cc1cccc(Oc2ccc(C3=CC=CN4CCS(=O)(=O)N=C34)cc2)c1 [Example 117, 9-[4-(3-methylphenoxy)phenyl]-3,4-dihydropyrido[2,1-c][1,2,4]thiadiazine 2,2-dioxide]"
,59%,"Cc1ccc(Oc2ccc(C3CCCN4CCS(=O)(=O)N=C34)cc2)cc1C (stereo not drawn) [Example 135, 9-[4-(3,4-dimethylphenoxy)phenyl]-3,4,6,7,8,9-hexahydropyrido[2,1-c][1,2,4]thiadiazine 2,2-dioxide]"
,78%,"Cc1nc2cc(OC3=CC=CN4CCS(=O)(=O)N=C34)ccc2s1 [Example 24, 9-[(2-methyl-1,3-benzothiazol-5-yl)oxy]-3,4-dihydropyrido[2,1-c][1,2,4]thiadiazine 2,2-dioxide]"
90%,,"CC(F)(F)c1cccc(Oc2ccc(C3=CC=CN4CCS(=O)(=O)N=C34)cc2)c1 [Example 156, 9-{4-[3-(1,1-difluoroethyl)phenoxy]phenyl}-3,4-dihydropyrido[2,1-c][1,2,4]thiadiazine 2,2-dioxide]"
81%,,"O=S1(=O)CCN2C=C(Cl)C=C(c3ccc(OCC4CCCO4)cc3)C2=N1 (stereo not drawn) [Example 251, 7-chloro-9-[4-(tetrahydrofuran-2-ylmethoxy)phenyl]-3,4-dihydropyrido[2,1-c][1,2,4]thiadiazine 2,2-dioxide]"
,98%,"CC(C)c1ccc(CCC2=CC=CN3CCS(=O)(=O)N=C23)cc1 [Example 25, 9-{2-[4-(1-methylethyl)phenyl]ethyl}-3,4-dihydropyrido[2,1-c][1,2,4]thiadiazine 2,2-dioxide]"
,71%,"COc1cccc(Oc2ccc(C3CCCN4CCS(=O)(=O)N=C34)cc2)c1 (stereo not drawn) [Example 98, 9-[4-(3-methoxyphenoxy)phenyl]-3,4,6,7,8,9-hexahydropyrido[2,1-c][1,2,4]thiadiazine 2,2-dioxide]"
,89%,"COc1cccc(C(=O)c2ccc(C3=CC=CN4CCS(=O)(=O)N=C34)cc2)c1 [Example 306, [4-(2,2-dioxido-3,4-dihydropyrido[2,1-c][1,2,4]thiadiazin-9-yl)phenyl](3-methoxyphenyl)methanone]"
84%,,"O=S1(=O)CCN2C=CC=C(c3ccc(Oc4cnccc4C(F)(F)F)cc3)C2=N1 [Example 255, 9-(4-{[4-(trifluoromethyl)pyridin-3-yl]oxy}phenyl)-3,4-dihydropyrido[2,1-c][1,2,4]thiadiazine 2,2-dioxide]"
75%,,"COc1cc(Oc2ccc(C3=CC=CN4CCS(=O)(=O)N=C34)cc2)ccc1Cl [Example 154, 9-[4-(4-chloro-3-methoxyphenoxy)phenyl]-3,4-dihydropyrido[2,1-c][1,2,4]thiadiazine 2,2-dioxide]"
73%,,"CC1(C)Cc2cc(C3=CC=CN4CCS(=O)(=O)N=C34)ccc2C1=O [Example 287, 5-(2,2-dioxido-3,4-dihydropyrido[2,1-c][1,2,4]thiadiazin-9-yl)-2,2-dimethyl-2,3-dihydro-1H-inden-1-one]"
,72%,"COc1ccc2cc(C3=CC=CN4CCS(=O)(=O)N=C34)ccc2c1 [Example 126, 9-(6-methoxynaphthalen-2-yl)-3,4-dihydropyrido[2,1-c][1,2,4]thiadiazine 2,2-dioxide]"
,93%,"Cc1cc(C(F)(F)F)nn1-c1ccc(C2=CC=CN3CCS(=O)(=O)N=C23)cc1 [Example 300, 9-{4-[5-methyl-3-(trifluoromethyl)-1H-pyrazol-1-yl]phenyl}-3,4-dihydropyrido[2,1-c][1,2,4]thiadiazine 2,2-dioxide]"
